Source: ChEMBL document CHEMBL5463729, “Data for DCP probe BAY 1753011” (2023)

Columns and labels:
[1] = target: cGMP-dependent protein kinase 2 (Homo sapiens) (UniProt Q13237); experiment: Inhibition of PRKG2(h) at 10.0 µM in the Eurofins Kinase panel; conditions: Compound concentration 10.0 uM
[2] = target: Epithelial discoidin domain-containing receptor 1 (Homo sapiens) (UniProt Q08345); experiment: Inhibition of DDR1(h) at 10.0 µM in the Eurofins Kinase panel; conditions: Compound concentration 10.0 uM
Sequence of Epithelial discoidin domain-containing receptor 1 (Homo sapiens) (Q08345 whole entry, the tested form may be a part): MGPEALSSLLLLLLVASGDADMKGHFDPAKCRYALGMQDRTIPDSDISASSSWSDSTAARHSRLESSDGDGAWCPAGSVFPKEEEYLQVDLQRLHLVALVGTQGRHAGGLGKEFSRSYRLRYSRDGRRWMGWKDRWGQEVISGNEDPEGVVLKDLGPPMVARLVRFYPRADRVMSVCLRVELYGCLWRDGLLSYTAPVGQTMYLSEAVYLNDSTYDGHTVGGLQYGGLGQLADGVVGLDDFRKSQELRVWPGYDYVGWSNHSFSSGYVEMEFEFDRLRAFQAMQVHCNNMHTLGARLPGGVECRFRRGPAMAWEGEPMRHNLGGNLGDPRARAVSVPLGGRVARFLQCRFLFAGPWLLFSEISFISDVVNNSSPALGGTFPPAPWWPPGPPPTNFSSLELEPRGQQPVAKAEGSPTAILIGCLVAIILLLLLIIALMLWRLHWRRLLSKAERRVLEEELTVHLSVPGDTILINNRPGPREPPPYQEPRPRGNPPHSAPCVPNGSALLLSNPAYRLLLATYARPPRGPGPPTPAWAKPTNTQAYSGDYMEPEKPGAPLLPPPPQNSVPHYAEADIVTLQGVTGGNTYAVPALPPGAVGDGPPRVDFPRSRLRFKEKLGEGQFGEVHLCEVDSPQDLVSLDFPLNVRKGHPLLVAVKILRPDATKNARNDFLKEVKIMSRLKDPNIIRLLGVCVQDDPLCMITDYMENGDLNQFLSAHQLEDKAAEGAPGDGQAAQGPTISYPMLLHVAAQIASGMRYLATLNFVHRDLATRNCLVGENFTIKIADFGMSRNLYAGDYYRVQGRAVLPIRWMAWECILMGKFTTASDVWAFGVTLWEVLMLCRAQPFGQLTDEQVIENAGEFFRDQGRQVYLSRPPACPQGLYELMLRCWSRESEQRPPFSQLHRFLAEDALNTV

[3] = target: Serine/threonine-protein kinase pim-3 (Homo sapiens) (UniProt Q86V86); experiment: Inhibition of Pim-3(h) at 10.0 µM in the Eurofins Kinase panel; conditions: Compound concentration 10.0 uM
[4] = target: Eukaryotic translation initiation factor 2-alpha kinase 1 (Homo sapiens) (UniProt Q9BQI3); experiment: Inhibition of HRI(h) at 10.0 µM in the Eurofins Kinase panel; conditions: Compound concentration 10.0 uM
Sequence of Eukaryotic translation initiation factor 2-alpha kinase 1 (Homo sapiens) (Q9BQI3 whole entry): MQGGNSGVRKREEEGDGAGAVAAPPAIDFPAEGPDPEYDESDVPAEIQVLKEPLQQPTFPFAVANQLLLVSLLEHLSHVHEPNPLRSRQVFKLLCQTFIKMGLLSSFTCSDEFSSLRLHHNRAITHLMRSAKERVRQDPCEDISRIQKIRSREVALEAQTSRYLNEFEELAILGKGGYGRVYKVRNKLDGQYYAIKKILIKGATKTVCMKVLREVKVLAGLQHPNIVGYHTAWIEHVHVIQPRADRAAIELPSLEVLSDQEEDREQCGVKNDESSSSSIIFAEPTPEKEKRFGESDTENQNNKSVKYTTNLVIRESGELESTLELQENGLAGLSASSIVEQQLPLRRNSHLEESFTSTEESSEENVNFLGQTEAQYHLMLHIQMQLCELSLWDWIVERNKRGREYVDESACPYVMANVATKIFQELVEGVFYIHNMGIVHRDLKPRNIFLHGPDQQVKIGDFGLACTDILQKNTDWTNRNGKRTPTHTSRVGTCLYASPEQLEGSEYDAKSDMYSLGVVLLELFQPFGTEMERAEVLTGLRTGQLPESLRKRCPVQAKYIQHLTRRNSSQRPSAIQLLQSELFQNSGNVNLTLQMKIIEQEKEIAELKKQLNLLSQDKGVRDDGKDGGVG

[5] = target: NUAK family SNF1-like kinase 2 (Homo sapiens) (UniProt Q9H093); experiment: Inhibition of NUAK2(h) at 10.0 µM in the Eurofins Kinase panel; conditions: Compound concentration 10.0 uM
Sequence of NUAK family SNF1-like kinase 2 (Homo sapiens) (Q9H093 whole entry): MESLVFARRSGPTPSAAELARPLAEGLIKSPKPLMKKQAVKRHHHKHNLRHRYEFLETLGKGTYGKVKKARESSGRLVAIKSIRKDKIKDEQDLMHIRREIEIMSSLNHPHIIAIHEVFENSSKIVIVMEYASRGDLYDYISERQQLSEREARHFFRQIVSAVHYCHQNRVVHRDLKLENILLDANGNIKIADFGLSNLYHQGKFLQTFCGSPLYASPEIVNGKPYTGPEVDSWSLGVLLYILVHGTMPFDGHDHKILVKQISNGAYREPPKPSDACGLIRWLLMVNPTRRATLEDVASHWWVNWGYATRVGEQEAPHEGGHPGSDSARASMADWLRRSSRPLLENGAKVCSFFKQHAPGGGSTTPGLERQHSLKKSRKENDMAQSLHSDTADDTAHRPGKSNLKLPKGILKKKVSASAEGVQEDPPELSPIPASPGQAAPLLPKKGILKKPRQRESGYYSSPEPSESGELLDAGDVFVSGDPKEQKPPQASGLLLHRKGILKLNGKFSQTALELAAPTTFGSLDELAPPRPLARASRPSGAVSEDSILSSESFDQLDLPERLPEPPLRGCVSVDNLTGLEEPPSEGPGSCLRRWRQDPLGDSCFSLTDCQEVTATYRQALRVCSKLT

[6] = target: Serine/threonine-protein kinase 10 (Homo sapiens) (UniProt O94804); experiment: Inhibition of LOK(h) at 10.0 µM in the Eurofins Kinase panel; conditions: Compound concentration 10.0 uM
Sequence of Serine/threonine-protein kinase 10 (Homo sapiens) (O94804 whole entry, looked up): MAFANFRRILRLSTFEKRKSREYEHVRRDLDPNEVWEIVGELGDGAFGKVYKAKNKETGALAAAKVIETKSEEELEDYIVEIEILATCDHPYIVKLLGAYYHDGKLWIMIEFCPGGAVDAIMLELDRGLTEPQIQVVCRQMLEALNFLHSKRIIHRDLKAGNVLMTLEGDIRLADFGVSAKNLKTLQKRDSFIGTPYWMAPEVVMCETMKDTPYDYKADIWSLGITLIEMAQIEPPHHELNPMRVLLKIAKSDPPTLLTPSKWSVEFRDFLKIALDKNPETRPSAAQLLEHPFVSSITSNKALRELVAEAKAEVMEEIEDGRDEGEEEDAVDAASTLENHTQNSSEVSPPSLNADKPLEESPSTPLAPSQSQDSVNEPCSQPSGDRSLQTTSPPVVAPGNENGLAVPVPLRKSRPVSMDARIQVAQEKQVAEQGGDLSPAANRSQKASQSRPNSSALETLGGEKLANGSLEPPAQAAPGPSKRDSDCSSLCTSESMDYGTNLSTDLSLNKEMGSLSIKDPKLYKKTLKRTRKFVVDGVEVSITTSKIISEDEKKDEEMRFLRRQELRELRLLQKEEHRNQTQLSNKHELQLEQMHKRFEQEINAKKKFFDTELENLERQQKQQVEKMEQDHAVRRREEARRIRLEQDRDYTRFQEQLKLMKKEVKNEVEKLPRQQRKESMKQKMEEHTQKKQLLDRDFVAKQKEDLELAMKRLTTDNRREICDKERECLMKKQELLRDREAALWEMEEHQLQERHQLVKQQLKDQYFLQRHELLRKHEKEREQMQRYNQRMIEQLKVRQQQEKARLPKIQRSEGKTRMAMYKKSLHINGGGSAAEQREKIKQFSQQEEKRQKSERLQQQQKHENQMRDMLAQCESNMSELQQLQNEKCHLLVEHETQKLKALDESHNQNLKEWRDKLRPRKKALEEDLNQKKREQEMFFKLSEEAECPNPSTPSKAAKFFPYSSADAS

[7] = target: T1, Muscarinic acetylcholine receptor M2 (Homo sapiens) (UniProt P08172); conditions: Compound concentration 10.0 uM
T1 sequence (whole entry): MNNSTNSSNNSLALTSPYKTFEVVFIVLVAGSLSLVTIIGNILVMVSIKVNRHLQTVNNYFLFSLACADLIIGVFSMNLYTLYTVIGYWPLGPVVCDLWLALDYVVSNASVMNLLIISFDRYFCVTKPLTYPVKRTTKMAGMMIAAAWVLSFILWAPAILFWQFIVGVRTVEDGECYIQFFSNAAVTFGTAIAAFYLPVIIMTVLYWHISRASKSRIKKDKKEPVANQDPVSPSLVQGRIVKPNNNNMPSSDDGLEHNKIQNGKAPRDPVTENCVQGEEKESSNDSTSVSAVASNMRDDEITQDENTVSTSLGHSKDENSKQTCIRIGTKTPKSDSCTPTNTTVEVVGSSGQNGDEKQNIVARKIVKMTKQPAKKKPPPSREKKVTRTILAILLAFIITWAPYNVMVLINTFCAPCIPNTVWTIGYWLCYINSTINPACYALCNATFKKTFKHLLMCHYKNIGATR

[8] = target: Macrophage colony-stimulating factor 1 receptor (Homo sapiens) (UniProt P07333); experiment: Inhibition of Fms(h) at 10.0 µM in the Eurofins Kinase panel; conditions: Compound concentration 10.0 uM
[9] = target: Protein kinase C beta type (Homo sapiens) (UniProt P05771); experiment: Inhibition of PKCbetaI(h) at 10.0 µM in the Eurofins Kinase panel; conditions: Compound concentration 10.0 uM
Sequence of Protein kinase C beta type (Homo sapiens) (P05771 2-671 limits assumed): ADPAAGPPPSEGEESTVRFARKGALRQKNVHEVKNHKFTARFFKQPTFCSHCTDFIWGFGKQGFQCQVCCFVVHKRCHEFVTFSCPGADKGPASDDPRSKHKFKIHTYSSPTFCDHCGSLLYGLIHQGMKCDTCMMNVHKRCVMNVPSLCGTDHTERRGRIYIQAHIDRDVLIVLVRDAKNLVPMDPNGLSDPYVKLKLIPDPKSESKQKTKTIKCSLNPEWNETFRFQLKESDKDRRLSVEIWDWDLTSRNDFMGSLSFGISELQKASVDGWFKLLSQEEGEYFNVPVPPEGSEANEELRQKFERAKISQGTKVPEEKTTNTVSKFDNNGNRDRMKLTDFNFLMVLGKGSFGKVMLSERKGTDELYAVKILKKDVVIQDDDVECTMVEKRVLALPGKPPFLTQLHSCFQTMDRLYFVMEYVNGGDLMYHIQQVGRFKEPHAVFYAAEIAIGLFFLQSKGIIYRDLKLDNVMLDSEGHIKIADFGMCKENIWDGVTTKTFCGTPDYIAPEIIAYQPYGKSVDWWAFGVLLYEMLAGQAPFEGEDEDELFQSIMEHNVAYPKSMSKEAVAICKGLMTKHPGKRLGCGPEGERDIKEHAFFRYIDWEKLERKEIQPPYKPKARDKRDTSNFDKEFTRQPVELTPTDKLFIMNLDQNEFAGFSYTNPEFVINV

[10] = target: 5-hydroxytryptamine receptor 2B (Homo sapiens) (UniProt P41595); conditions: Compound concentration 10.0 uM
Sequence of 5-hydroxytryptamine receptor 2B (Homo sapiens) (P41595 whole entry, the tested form may be a part): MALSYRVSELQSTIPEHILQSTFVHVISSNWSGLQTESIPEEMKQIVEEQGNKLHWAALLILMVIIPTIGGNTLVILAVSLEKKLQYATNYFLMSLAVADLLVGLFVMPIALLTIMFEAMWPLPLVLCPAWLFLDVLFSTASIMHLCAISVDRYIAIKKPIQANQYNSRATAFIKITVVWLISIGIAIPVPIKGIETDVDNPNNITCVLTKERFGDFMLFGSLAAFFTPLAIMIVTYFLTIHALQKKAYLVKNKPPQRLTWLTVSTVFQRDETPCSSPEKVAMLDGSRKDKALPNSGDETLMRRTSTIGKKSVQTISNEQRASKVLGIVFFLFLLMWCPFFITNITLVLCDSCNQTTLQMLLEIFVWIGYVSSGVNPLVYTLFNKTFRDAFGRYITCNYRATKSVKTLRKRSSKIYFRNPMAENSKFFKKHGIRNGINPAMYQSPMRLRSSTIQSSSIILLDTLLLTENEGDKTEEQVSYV

[11] = target: Phosphatidylinositol 4-phosphate 3-kinase C2 domain-containing subunit alpha (Homo sapiens) (UniProt O00443); experiment: Inhibition of PI3KC2a(h) at 10.0 µM in the Eurofins Kinase panel; conditions: Compound concentration 10.0 uM
[12] = target: Serine/threonine-protein kinase Nek7 (Homo sapiens) (UniProt Q8TDX7); experiment: Inhibition of NEK7(h) at 10.0 µM in the Eurofins Kinase panel; conditions: Compound concentration 10.0 uM
[13] = target: Protein kinase C theta type (Homo sapiens) (UniProt Q04759); experiment: Inhibition of PKCtheta(h) at 10.0 µM in the Eurofins Kinase panel; conditions: Compound concentration 10.0 uM
[14] = target: Transcription initiation factor TFIID subunit 1-like (Homo sapiens) (UniProt Q8IZX4); experiment: Inhibition of TAF1L(h) at 10.0 µM in the Eurofins Kinase panel; conditions: Compound concentration 10.0 uM
[15] = target: Serine/threonine-protein kinase 26 (Homo sapiens) (UniProt Q9P289); experiment: Inhibition of MST4(h) at 10.0 µM in the Eurofins Kinase panel; conditions: Compound concentration 10.0 uM
[16] = target: Serine/threonine-protein kinase ULK3 (Homo sapiens) (UniProt Q6PHR2); experiment: Inhibition of ULK3(h) at 10.0 µM in the Eurofins Kinase panel; conditions: Compound concentration 10.0 uM
[17] = target: PI3-kinase p110-delta/p85-alpha (Homo sapiens) (UniProt P27986+O00329); experiment: Inhibition of PI3 Kinase (p110d/p85a)(h) at 10.0 µM in the Eurofins Kinase panel; format: protein-complex assay; conditions: Compound concentration 10.0 uM
[18] = target: Misshapen-like kinase 1 (Homo sapiens) (UniProt Q8N4C8); experiment: Inhibition of MINK(h) at 10.0 µM in the Eurofins Kinase panel; conditions: Compound concentration 10.0 uM
[19] = target: T2, Muscarinic acetylcholine receptor M5 (Homo sapiens) (UniProt P08912); conditions: Compound concentration 10.0 uM
T2 sequence (whole entry): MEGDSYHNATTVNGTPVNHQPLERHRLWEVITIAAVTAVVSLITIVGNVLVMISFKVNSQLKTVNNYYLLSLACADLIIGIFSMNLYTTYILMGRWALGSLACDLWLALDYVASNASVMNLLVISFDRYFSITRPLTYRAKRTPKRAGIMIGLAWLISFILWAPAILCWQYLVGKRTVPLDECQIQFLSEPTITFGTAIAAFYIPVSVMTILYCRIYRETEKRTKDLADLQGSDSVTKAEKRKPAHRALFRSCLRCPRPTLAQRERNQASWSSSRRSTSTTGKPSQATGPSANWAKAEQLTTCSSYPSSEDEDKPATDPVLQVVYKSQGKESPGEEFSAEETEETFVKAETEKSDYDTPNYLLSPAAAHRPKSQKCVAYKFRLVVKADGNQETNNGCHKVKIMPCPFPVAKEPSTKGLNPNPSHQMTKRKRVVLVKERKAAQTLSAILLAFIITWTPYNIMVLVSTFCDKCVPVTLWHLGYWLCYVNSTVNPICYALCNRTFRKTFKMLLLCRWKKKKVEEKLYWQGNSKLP

[20] = target: T3, Vasopressin V1b receptor (Homo sapiens) (UniProt P47901); experiment: Inhibition of Vasopressin V1B at 10 µM in the Eurofins-Panlabs radioligand binding assay (Eurofins_assay_287560); design: ligand concentration 1 nM
T3 sequence (whole entry): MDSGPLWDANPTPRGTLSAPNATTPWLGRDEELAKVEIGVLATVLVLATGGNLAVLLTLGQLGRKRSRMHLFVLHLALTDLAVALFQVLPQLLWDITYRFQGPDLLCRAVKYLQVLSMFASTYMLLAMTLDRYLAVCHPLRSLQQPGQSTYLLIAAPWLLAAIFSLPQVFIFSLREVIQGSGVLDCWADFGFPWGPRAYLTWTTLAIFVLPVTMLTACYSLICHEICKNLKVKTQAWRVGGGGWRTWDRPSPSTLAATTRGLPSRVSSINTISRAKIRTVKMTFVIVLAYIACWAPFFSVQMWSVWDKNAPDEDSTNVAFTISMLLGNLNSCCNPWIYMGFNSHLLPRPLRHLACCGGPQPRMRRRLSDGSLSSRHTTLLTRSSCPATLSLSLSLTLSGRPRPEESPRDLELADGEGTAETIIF

[21] = target: Wee1-like protein kinase 2 (Homo sapiens) (UniProt P0C1S8); experiment: Inhibition of Wee1B(h) at 10.0 µM in the Eurofins Kinase panel; conditions: Compound concentration 10.0 uM
[22] = target: Mu-type opioid receptor (Homo sapiens) (UniProt P35372); conditions: Compound concentration 10.0 uM

Sequence of cGMP-dependent protein kinase 2 (Homo sapiens) (Q13237 whole entry, the tested form may be a part): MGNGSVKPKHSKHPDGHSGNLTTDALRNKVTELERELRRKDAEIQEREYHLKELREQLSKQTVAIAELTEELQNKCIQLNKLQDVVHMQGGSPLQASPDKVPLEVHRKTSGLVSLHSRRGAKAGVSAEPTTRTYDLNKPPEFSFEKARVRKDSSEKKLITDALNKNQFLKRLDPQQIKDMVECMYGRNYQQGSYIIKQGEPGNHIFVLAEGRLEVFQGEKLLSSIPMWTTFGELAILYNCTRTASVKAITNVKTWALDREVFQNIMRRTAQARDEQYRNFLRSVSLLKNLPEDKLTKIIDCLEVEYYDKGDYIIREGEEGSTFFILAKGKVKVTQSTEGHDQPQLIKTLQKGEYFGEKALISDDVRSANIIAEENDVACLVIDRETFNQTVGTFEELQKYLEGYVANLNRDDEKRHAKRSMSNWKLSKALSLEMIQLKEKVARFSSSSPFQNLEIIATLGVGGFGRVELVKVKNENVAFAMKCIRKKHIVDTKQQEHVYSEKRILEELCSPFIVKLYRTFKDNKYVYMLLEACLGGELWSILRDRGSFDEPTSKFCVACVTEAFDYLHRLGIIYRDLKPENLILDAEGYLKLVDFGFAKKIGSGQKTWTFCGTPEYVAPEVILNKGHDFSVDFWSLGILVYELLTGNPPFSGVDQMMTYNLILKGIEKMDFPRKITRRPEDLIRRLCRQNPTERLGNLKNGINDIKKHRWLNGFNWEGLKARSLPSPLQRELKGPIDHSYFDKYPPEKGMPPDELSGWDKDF

Compound	inhibition [1]	inhibition [2]	inhibition [3]	inhibition [4]	inhibition [5]	inhibition [6]	inhibition [7]	inhibition [8]	inhibition [9]	inhibition [10]	inhibition [11]	inhibition [12]	inhibition [13]	inhibition [14]	inhibition [15]	inhibition [16]	inhibition [17]	inhibition [18]	inhibition [19]	inhibition ([20]; Compound concentration 10.0 uM)	other results
O=c1n(Cc2cncn2-c2cccc(Cl)c2)nc(-c2ccc(Cl)cc2)n1C[C@H](O)C(F)(F)F	-3.28%	0.92%	4.9%	-5.05%	-1.01%	10.4%	-9.34%	5.33%	1%	7.98%	27.5%	1.5%	14.5%	-2.39%	-4.66%	6.3%	-4.66%	5.6%	-5.11%	7%	inhibition [21]: 7.62%; inhibition [22]: -6%
C[C@H](O)c1nc(Cn2nc(-c3ccc(Cl)cc3)n(C[C@H](O)C(F)(F)F)c2=O)nn1-c1cccc(Cl)c1 [PECAVAPTAN]	-2.94%	7.3%	3.06%	6.64%	4.99%	2.48%	4.65%	-2.47%	2.79%	13.1%	11.6%	3.8%	3.44%	2.81%	-2.72%	10.9%	-1.36%	5.2%	-1.8%	43%	inhibition ([20]; Compound concentration 0.001 uM): 6%; inhibition ([20]; Compound concentration 0.01 uM): -6%; inhibition ([20]; Compound concentration 0.1 uM): -5%; inhibition ([20]; Compound concentration 1.0 uM): 5%; inhibition [21]: 7.48%; inhibition [22]: 24%
